This note sets out measurements from ChEMBL document CHEMBL1148237, “Bioisosteric replacement of anilide with benzoxazole: potent and orally bioavailable antagonists of VLA-4” (Bioorg Med Chem Lett, 2004).

Molecules are shown by their SMILES.

For one data set, the target named is T1, Integrin alpha-4/beta-7 (Homo sapiens, UniProt P13612+P26010).
T1 sequence (P13612 whole entry): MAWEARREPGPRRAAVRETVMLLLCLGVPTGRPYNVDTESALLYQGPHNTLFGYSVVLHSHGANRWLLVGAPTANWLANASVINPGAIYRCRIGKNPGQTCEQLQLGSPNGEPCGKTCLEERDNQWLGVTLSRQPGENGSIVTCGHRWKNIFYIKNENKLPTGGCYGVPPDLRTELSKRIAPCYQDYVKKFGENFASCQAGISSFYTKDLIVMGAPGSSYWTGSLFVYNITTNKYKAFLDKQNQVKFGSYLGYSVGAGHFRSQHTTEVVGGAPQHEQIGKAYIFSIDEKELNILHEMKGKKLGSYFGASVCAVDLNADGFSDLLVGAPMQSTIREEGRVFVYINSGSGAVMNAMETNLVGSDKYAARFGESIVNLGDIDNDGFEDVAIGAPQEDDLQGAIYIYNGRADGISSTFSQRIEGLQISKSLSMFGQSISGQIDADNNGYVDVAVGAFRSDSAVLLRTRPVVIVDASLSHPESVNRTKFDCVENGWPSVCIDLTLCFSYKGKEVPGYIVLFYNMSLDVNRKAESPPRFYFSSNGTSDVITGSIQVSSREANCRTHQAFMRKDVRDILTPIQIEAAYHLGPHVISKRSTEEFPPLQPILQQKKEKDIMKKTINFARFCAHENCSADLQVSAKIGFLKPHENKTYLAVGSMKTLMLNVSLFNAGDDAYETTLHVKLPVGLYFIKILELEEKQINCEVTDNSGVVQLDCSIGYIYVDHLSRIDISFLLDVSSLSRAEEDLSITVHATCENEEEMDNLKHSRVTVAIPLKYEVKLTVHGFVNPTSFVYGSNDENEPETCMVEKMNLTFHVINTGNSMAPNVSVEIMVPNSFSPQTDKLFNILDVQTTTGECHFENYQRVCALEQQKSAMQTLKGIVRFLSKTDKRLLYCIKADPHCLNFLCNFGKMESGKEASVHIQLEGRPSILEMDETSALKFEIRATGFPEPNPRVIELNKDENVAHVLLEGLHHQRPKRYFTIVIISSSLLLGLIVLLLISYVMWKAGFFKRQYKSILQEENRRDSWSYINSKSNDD
T1 sequence (P26010 whole entry): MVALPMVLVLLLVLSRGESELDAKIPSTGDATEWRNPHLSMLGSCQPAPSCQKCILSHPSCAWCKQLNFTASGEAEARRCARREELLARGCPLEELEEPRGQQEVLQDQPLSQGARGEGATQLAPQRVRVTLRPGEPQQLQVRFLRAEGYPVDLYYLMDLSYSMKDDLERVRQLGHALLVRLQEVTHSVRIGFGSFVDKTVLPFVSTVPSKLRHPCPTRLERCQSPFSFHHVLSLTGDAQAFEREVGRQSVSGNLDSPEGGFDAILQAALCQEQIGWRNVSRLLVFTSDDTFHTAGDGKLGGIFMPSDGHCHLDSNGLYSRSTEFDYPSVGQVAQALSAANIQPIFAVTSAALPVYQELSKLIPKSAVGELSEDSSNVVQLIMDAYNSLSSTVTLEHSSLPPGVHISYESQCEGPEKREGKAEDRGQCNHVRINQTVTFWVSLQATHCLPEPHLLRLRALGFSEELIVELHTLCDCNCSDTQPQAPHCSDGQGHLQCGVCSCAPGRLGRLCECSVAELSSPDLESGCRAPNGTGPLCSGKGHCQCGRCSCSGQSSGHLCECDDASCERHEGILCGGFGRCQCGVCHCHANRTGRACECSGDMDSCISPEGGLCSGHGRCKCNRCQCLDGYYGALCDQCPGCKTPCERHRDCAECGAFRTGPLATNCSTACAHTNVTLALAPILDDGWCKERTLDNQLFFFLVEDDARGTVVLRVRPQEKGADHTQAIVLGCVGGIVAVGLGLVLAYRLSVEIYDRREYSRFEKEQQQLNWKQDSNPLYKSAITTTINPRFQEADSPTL
Kind of data set: Inhibition of Mn2+ activated state of alpha4-beta7 integrin. It is filed as protein-complex assay.

The nature of data set [1]: Clearance of compound in rat was evaluated. To be noted: in vivo. Format: ADME, organism-based.
Data set [2] can be described thus: Bioavailability in rat. Format: ADME, organism-based. To be noted: in vivo.
Data set [3] concerns the target T2, Integrin alpha-4/beta-1 (Homo sapiens, UniProt P05556+P13612). The experiment in a line: Inhibition of [Ca2+]/Mg2+ unactivated state of very late antigen 4 (VLA-4). It is filed as protein-complex assay.
In data set [4] the target is T2, Integrin alpha-4/beta-1. The experiment in a line: Inhibition of Mn2+ activated state of very late antigen 4 (VLA-4). It is filed as protein-complex assay.

T2 sequence (P05556 whole entry, one chain of several): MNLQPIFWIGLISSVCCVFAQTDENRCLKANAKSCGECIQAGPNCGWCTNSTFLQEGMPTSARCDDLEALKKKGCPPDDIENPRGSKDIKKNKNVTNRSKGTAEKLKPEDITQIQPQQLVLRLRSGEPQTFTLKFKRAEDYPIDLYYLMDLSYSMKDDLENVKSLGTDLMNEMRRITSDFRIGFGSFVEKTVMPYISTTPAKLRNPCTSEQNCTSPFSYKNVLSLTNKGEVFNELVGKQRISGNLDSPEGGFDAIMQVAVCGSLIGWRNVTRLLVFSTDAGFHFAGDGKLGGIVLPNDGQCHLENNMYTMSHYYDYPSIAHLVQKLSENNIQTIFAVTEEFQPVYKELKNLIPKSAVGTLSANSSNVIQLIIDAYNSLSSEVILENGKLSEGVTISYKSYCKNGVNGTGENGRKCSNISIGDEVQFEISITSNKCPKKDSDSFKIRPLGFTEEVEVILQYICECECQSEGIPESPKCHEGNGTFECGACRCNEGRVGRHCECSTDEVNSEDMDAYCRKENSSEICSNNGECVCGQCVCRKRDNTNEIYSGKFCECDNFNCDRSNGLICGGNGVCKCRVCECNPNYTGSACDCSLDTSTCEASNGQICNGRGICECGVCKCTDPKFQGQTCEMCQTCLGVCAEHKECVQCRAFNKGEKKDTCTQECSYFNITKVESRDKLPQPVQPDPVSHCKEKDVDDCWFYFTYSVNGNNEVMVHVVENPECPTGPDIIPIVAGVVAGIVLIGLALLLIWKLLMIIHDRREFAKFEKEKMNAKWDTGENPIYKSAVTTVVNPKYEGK

Broadly, the IC50 is the point on the concentration scale where inhibition reaches its midpoint. One may read the clearance as a measure of how efficiently the substance is removed, as volume per time. High values mean a high capacity for elimination, low ones a low capacity for elimination. One may read the bioavailability as dose-corrected exposure relative to a reference, in per cent. Higher therefore signals much systemic uptake. In the case of `O=C(O)[C@H](Cc1ccc2nc(-c3c(Cl)cccc3Cl)oc2c1)NC(=O)[C@@H]1CCN1S(=O)(=O)c1cc(Cl)cc(Cl)c1`, the IC50 on Integrin alpha-4/beta-7 stood at 1690 nM; against Integrin alpha-4/beta-1 [3], 33 nM; against Integrin alpha-4/beta-1 [4], 1.7 nM. This molecule registered a clearance in data set [1] of 24 mL/min/kg. Also, the bioavailability in data set [2] amounted to 8%.
For `O=C(N[C@@H](Cc1ccc2[nH]c(-c3c(Cl)cccc3Cl)nc2c1)C(=O)O)c1c(Cl)cccc1Cl`, the results for the IC50 against Integrin alpha-4/beta-7, at Integrin alpha-4/beta-1 [3] and against Integrin alpha-4/beta-1 [4] were 3.2 nM, 22 nM and 0.69 nM, respectively. This molecule displayed a clearance in data set [1] of 24 mL/min/kg. The molecule further showed a bioavailability in data set [2] of 1.2%.
For `O=C(N[C@@H](Cc1ccc2oc(-c3c(Cl)cccc3Cl)nc2c1)C(=O)O)c1c(Cl)cccc1Cl`, in that order: 5.5 nM, 52 nM, 0.79 nM, 9 mL/min/kg and 20%.
In data set [1], `COc1cccc(OC)c1-c1ccc(C[C@H](NC(=O)[C@]2(C)CCN2S(=O)(=O)c2cc(Cl)cc(Cl)c2)C(=O)O)cc1` displayed a clearance of 97 mL/min/kg. The IC50 against Integrin alpha-4/beta-1 [3] was 0.27 nM.
For the molecule `O=C(Nc1ccc(C[C@H](NC(=O)[C@@H]2CCN2S(=O)(=O)c2cc(Cl)cc(Cl)c2)C(=O)O)cc1)c1c(Cl)cccc1Cl`, the IC50 worked out at 22 nM at Integrin alpha-4/beta-7, 0.31 nM against Integrin alpha-4/beta-1 [3] and 0.27 nM against Integrin alpha-4/beta-1 [4]. The molecule further returned a clearance in data set [1] of 33 mL/min/kg. The same molecule showed a bioavailability in data set [2] of 0.7%.
Regarding `O=C(O)[C@H](Cc1ccc2[nH]c(-c3c(Cl)cccc3Cl)nc2c1)NC(=O)[C@@H]1CCN1S(=O)(=O)c1cc(Cl)cc(Cl)c1`, the results for the IC50 against Integrin alpha-4/beta-7, against Integrin alpha-4/beta-1 [3] and on Integrin alpha-4/beta-1 [4] were 105 nM, 1.8 nM and 0.54 nM, respectively. Further, the clearance in data set [1] was determined as 21 mL/min/kg. Besides, in data set [2], the bioavailability was found to be 0.3%.
On the same counts, the results for `O=C(N[C@@H](Cc1ccc2oc(-c3c(Cl)cccc3Cl)nc2c1)C(=O)O)c1c(Cl)cncc1Cl` are 4.3 nM, 21 nM, 0.34 nM, 25 mL/min/kg and 25%.
For `O=C(O)[C@H](Cc1ccc2oc(-c3c(Cl)cccc3Cl)nc2c1)NC(=O)[C@@H]1CCN1S(=O)(=O)c1cc(Cl)cc(Cl)c1`, in that order: 179 nM, 3.6 nM, 0.74 nM, 24 mL/min/kg and 15%.
